Consider nine compounds from patent publication US20120202690A1, “HERBICIDAL COMPOUNDS” (SYNGENTA LIMITED, priority 2009, published 2012).

What all share (assay type): in vivo
Experiment [1] concerns Ipomoea hederaceae (IPOHE). As to the kind of experiment: Pre-emergence biological efficacy, glasshouse, 1000 g/ha, evaluated after 13 days (100=total damage to plant; 0=no damage to plant). As to conditions: Ipomoea, 312 h, rate 1,000 g/ha, read-out: Percentage damage caused to weed species, pre-emergence, IPOHE. The gist of the method: (§1)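 Standard soil in pots received the seeds. Growth took place in a glasshouse held at 24/16° C. day/night, 65% humidity and 14 h of light.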

Experiment [2] deals with Echinochloa crus-galli (ECHCG). Described as above. As to conditions: Echinochloa crus-galli, 312 h, rate 1,000 g/ha, read-out: Percentage damage caused to weed species, pre-emergence, ECHCG. The method, boiled down:
as §1

The subject of experiment [3] is Alopecurus myosuroides (ALOMY). The experiment is described as above. As to conditions: Alopecurus myosuroides, 312 h, rate 1,000 g/ha, read-out: Percentage damage caused to weed species, pre-emergence, ALOMY. The method, boiled down: as §1
Experiment [4] has as its system Setaria faberi (SETFA). Described as above. As to conditions: Setaria faberi, 312 h, rate 1,000 g/ha, read-out: Percentage damage caused to weed species, pre-emergence, SETFA. The gist of the method:
as §1

In experiment [5] the test system is Amaranthus retroflexus (AMARE). Described as above. As to conditions: Amaranthus retroflexus, 312 h, rate 1,000 g/ha, read-out: Percentage damage caused to weed species, pre-emergence, AMARE. The gist of the method:
as §1

Experiment [6] has as its system Solanum nigrum (SOLNI). Described as above. As to conditions: Solanum nigrum, 312 h, rate 1,000 g/ha, read-out: Percentage damage caused to weed species, pre-emergence, SOLNI. The gist of the method:
as §1

For experiment [7], the system named is Echinochloa crusgaffi (ECHCG). As to the kind of experiment: Post-emergence biological efficacy, glasshouse, 500 or 1000 g/ha, evaluated after 13 days (100=total damage to plant; 0=no damage to plant). As to conditions: Echinochloa, 312 h, rate 1,000 g/ha, read-out: Percentage damage caused to weed species, post-emergence, ECHCG. The method, boiled down: (§2)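 Plants raised from seed in pots of standard soil receive the spray after emergence. They then grow on under controlled glasshouse conditions (24/16° C. day/night, 14 hours light, 65% humidity) and are watered twice a day.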

The test system of experiment [8] is Ipomoea hederaceae (IPOHE). Described as above. As to conditions: Ipomoea, 312 h, rate 1,000 g/ha, read-out: Percentage damage caused to weed species, post-emergence, IPOHE. The method, boiled down:
as §2

Experiment [9] deals with Alopecurus myosuroides (ALOMY). Described as above. As to conditions: Alopecurus myosuroides, 312 h, rate 1,000 g/ha, read-out: Percentage damage caused to weed species, post-emergence, ALOMY. The method, boiled down: as §2
The test system of experiment [10] is Setaria faberi (SETFA). The experiment is described as above. As to conditions: Setaria faberi, 312 h, rate 1,000 g/ha, read-out: Percentage damage caused to weed species, post-emergence, SETFA. The gist of the method:
as §2

Experiment [11] has as its system Amaranthus retroflexus (AMARE). Described as above. As to conditions: Amaranthus retroflexus, 312 h, rate 1,000 g/ha, read-out: Percentage damage caused to weed species, post-emergence, AMARE. The gist of the method:
as §2

In experiment [12] the test system is Solanum nigrum (SOLNI). Described as above. As to conditions: Solanum nigrum, 312 h, rate 1,000 g/ha, read-out: Percentage damage caused to weed species, post-emergence, SOLNI. The gist of the method:
as §2

On to `COc1c(Cl)ccc(-c2cc3[nH]cc(C)c3c(C(=O)OCc3ccco3)n2)c1F` [Compound 22-87, 6-(4-Chloro-2-fluoro-3-methoxyphenyl)-4-(2-furanyl-methoxycarbonyl)-3-methyl-1H-pyrrolo[3,2-c]pyridine], for which the pest or weed control at 1000 g/ha in [1] stood at 80%; in experiment [2], 10%; in experiment [3] it was 10%; in experiment [4], 10%; in [5], 20%; in experiment [6], 70%. The pest or weed control at 1000 g/ha in experiment [7] was 10%; in experiment [8], 70%; in experiment [9] it was 20%; in experiment [10], 40%; in experiment [11], 80%; in [12] it was 90%.
Turning to `COc1c(Cl)ccc(-c2cc3[nH]cc(C)c3c(C(=O)OCC3CCCO3)n2)c1F` (stereo not drawn) [Compound 22-88, 6-(4-Chloro-2-fluoro-3-methoxyphenyl)-3-methyl-4-(tetrahydrofuran-2-yl-methoxycarbonyl)-1H-pyrrolo[3,2-c]pyridine], the pest or weed control at 1000 g/ha in experiment [1] is 50%; in experiment [2], 0%; in experiment [3], 10%; in experiment [4] it was 10%; in [5], 100%; in [6], 100%. Besides, the pest or weed control at 1000 g/ha in experiment [7] amounted to 20%; in experiment [8], 60%; in experiment [9], 30%; in experiment [10] it was 40%; in experiment [11] it was 80%; in experiment [12] it was 90%.
In the case of `COC(=O)c1nc(Cl)cc2[nH]ccc12` [Compound 22-122, 6-chloro-4-methoxycarbonyl-1H-pyrrolo[3,2-c]pyridine], the pest or weed control at 1000 g/ha in experiment [1], in experiment [2], in [3], in experiment [4], in [5] and in [6] was 0% in each case. For the same compound, the pest or weed control at 1000 g/ha in experiment [7] is 0%; in [8], 10%; in experiment [9], 0%; in experiment [10], 0%; in [11], 60%; in experiment [12] it was 20%.
Regarding `COC(=O)c1nc(Cl)cc2[nH]cc(C)c12` [Compound 22-124, 6-chloro-4-methoxycarbonyl-3-methyl-1H-pyrrolo[3,2-c]pyridine], the pest or weed control at 1000 g/ha came out at 100% in [1]; 20% in [2]; 70% in experiment [3]; 30% in experiment [4]; 100% in [5]; 100% in [6]. In addition, the pest or weed control at 1000 g/ha in [7] came out at 20%; in experiment [8] it was 80%; in [9], 30%; in [10] it was 40%; in experiment [11], 80%; in [12] it was 90%.
`COC(=O)c1nc(Cl)cc2[nH]cc(Cl)c12` [Compound 22-132, 3,6-dichloro-4-methoxycarbonyl-1H-pyrrolo[3,2-c]pyridine]: the pest or weed control at 1000 g/ha in experiment [1] is 40%; in [2], 0%; in experiment [3], 0%; in [4], 0%; in [5], 0%; in experiment [6] it was 10%. Further, the pest or weed control at 1000 g/ha is 0% in [7]; 50% in experiment [8]; 0% in [9]; 0% in [10]; 50% in experiment [11]; 60% in [12].
`COC(=O)c1nc(-c2ccc(Cl)c(OC)c2F)cc2c1ccn2Cc1ccco1` [Compound 32-62, 6-(4-Chloro-2-fluoro-3-methoxyphenyl)-1-(2-furanyl-methyl)-4-methoxycarbonyl-1H-pyrrolo[3,2-c]pyridine]: the pest or weed control at 1000 g/ha in [1] was determined as 20%; in [2], 30%; in experiment [3], 30%; in [4] it was 20%; in experiment [5], 80%; in [6], 80%. Moreover, the pest or weed control at 1000 g/ha in experiment [7] turned out to be 50%; in experiment [8], 70%; in experiment [9] it was 10%; in [10] it was 40%; in [11], 80%; in experiment [12], 80%.
As for `COC(=O)c1nc(-c2ccc(Cl)c(OC)c2F)cc2c1c(C)cn2C(=O)C(C)(C)C` [Compound 37-64, 1-t-Butylcarbonyl-6-(4-chloro-2-fluoro-3-methoxyphenyl)-4-methoxycarbonyl-3-methyl-1H-pyrrolo[3,2-c]pyridine], the pest or weed control at 1000 g/ha in experiment [1], in experiment [2], in [3], in [4], in [5] and in [6] was 0% in each case. Besides, the pest or weed control at 1000 g/ha in [7] stood at 0%; in experiment [8] it was 40%; in [9], 0%; in experiment [10], 0%; in experiment [11], 0%; in experiment [12] it was 50%.
`COC(=O)c1nc(-c2ccc(Cl)c(OC)c2F)cc2c1c(C)cn2C(=O)OC` [Compound 38-64, 6-(4-Chloro-2-fluoro-3-methoxyphenyl)-1,4-di(methoxycarbonyl)-3-methyl-1H-pyrrolo[3,2-c]pyridine]: the pest or weed control at 1000 g/ha in experiment [1], in experiment [2], in [3], in experiment [4], in experiment [5] and in [6] was 0% in each case. Also, the pest or weed control at 1000 g/ha in [7] was 0%; in [8], 20%; in experiment [9], 10%; in experiment [10] it was 10%; in experiment [11] it was 0%; in experiment [12] it was 10%.
For the compound `COC(=O)c1nc(-c2ccc(Cl)c(OC)c2F)cc2c1c(C)cn2S(=O)(=O)c1ccc(C)cc1` [Compound 40-64, 6-(4-Chloro-2-fluoro-3-methoxyphenyl)-4-methoxycarbonyl-3-methyl-1-(4-methylphenyl-sulphonyl)-1H-pyrrolo[3,2-c]pyridine], the pest or weed control at 1000 g/ha came to 0% in experiment [1]; 10% in [2]; 0% in experiment [3]; 10% in experiment [4]; 0% in experiment [5]; 40% in experiment [6]. The pest or weed control at 1000 g/ha in experiment [7] is 0%; in [8], 50%; in experiment [9], 0%; in experiment [10] it was 0%; in experiment [11], 0%; in experiment [12] it was 60%.
